Results taken from the NIST ThermoML archive (doi:10.1021/je0400052).
Numbers after ± are expanded uncertainties.

Columns and labels:
[1] = refractive index (Na D-line) (dimensionless); settings: 101.33 kPa, Liquid
[2] = 101.33 kPa, Liquid

Row | SMILES | refractive index ([1]; 303.15 K) | refractive index ([1]; 313.15 K) | mass density ([2]; 303.15 K) | viscosity ([2]; 303.15 K) | mass density ([2]; 313.15 K) | viscosity ([2]; 313.15 K)
1 | CCOC=O [ethyl methanoate] | 1.3552 ± 0.0032 | 1.3549 ± 0.0032 | 908.1 ± 2.1 kg/m3 | 0.366 ± 0.011 mPa·s | 894.9 ± 2.2 kg/m3 | 0.339 ± 0.011 mPa·s
2 | CCOC(=O)c1ccccc1 [ethyl benzoate] | 1.5009 ± 0.0025 | 1.4997 ± 0.0025 | 1037.4 ± 2.3 kg/m3 | 1.748 ± 0.042 mPa·s | 1028.5 ± 2.4 kg/m3 | 1.438 ± 0.035 mPa·s
3 | Cc1cccc(C)c1 [1,3-dimethylbenzene] | 1.492 ± 0.0025 | 1.4901 ± 0.0025 | 855.3 ± 1.8 kg/m3 | 0.557 ± 0.015 mPa·s | 847.1 ± 2 kg/m3 | 0.508 ± 0.014 mPa·s
4 | Cc1ccccc1C [1,2-dimethylbenzene] | 1.5001 ± 0.0025 | 1.4981 ± 0.0025 | 870.8 ± 1.9 kg/m3 | 0.695 ± 0.018 mPa·s | 863.3 ± 2 kg/m3 | 0.621 ± 0.017 mPa·s
